# Results reported in patent publication US9289467B2, “Compositions and methods for treating bone conditions” (Case Western Reserve University, priority 2011, dated 2016).
# Entries after “also recorded” stand apart in the source; their conditions may differ.
# Assays:
# Type in all cases: cell-based
# [1] = test system: WT BM cells; experiment: OC differentiation of WT mouse BM cells stimulated with 1.25(OH)2 vitamin D3, TRAP staining; conditions: for TRAP-positive multinuclear cells / TRAP-positive mononuclear cells / numbers of resultant OC with exogenous C3a/C5a, result in words: WT BM cells; for TRAP-positive multinuclear cells / TRAP-positive mononuclear cells: 1×10^−8M 1.25(OH)2 vitamin D3, 50 μM of each antagonist, day 12; for TRAP-positive multinuclear cells: placebo 42±9; for TRAP-positive mononuclear cells: placebo 217±25; for OC generation / differentiation, result in words: WT mouse BM cells, antagonist during 1.25(OH)2 vitamin D3 stimulation, vs placebo; for numbers of resultant OC with exogenous C3a/C5a, result in words: 50 ng/mL C3a or C5a or both added daily
# Method: (§1) Human BM cells from healthy donors were obtained from the Hematopoietic Stem Cell Core Facility of Case Western Reserve University. Murine BM cells were isolated from 8- to 12-week-old female mouse femurs and tibias, washed, and collected in 15-mL tubes in α-modified Eagle medium (MEM) containing 10% fetal bovine serum (FBS) that was heat-inactivated to eliminate complement activity. For OC differentiation, 2×10^6 BM cells were cultured in complete α-MEM medium in wells of a 24-well plate together with 1×10^−8M 1.25(OH)2 vitamin D3 (Cayman Chemical) as described before. Cultures were fed every 3 days with fresh media. For IL-6 or C5aR antagonist (C5aRA)/C3aR antagonist (C3aRA) supplementation experiments, 20 ng/mL IL-6 (R&D Systems) or 50 μM of each antagonist or both (C5aRA: JPE-1375; custom synthesized by Anaspec; C3aRA:SB290157; purchased from BMD Chemicals) were included in the medium. For C3a and/or C5a supplementation experiments, 50 ng/mL purified C3a (BD Biosciences) or C5a (Cell Sciences) or both were added daily into WT and C3^−/− BM-cell cultures. To neutralize IL-6 in samples treated with C3a/C5a, 10 ng/mL rat anti-IL-6 mAb (Clone 6B4 IGH 54; eBioscience) were added every 2 days. At day 12, differentiated OCs were identified by conventional tartrate-resistant acid phosphatase (TRAP) staining using a kit (Sigma-Aldrich) and following the protocol provided by the manufacturer. Total numbers of TRAP-positive cells in each well were counted under a microscope, and cells containing 3 or more nuclei were categorized as multinucleated.
# [2] = test system: human BM cells; experiment: OC differentiation of human BM cells stimulated with 1.25(OH)2 vitamin D3, TRAP staining; conditions: 1.25(OH)2 vitamin D3, with antagonists vs placebo
# Method: as §1
# To determine whether the above-observed results would apply to humans, we subjected normal human BM cells to OC differentiation conditions with and without the C3aR/C5aR antagonists, then analyzed the conditioned media for the presence of factor B, factor D, and C5, and quantified the resultant TRAP^+ cells.
# [3] = test system: C3^−/− BM cells; experiment: OC differentiation of C3^−/− mouse BM cells stimulated with 1.25(OH)2 vitamin D3, TRAP staining; conditions: for numbers of resultant OC with exogenous C3a/C5a, result in words: 50 ng/mL C3a or C5a or both added daily
# Method: as §1
Molecule,TRAP-positive multinuclear cells [1] [cells],TRAP-positive mononuclear cells [1] [cells],"OC generation / differentiation, result in words [1]","OC differentiation (TRAP^+ cells), result in words [2]","numbers of resultant OC with exogenous C3a/C5a, result in words ([3]; C3^−/− BM cells)","numbers of resultant OC with exogenous C3a/C5a, result in words [1]",further results
"NC(N)=NCCC[C@H](NC(=O)COCC(c1ccccc1)c1ccccc1)C(=O)O [C3aRA, SB290157]",29±7,156±23,significantly inhibited OC generation,significant decrease in both mononuclear and multi-nuclear TRAP^+ cells,,,
"C3a: purified C3a (BD Biosciences), complement activation product, 50 ng/mL",,,,,increased the numbers of resultant OC,increased the numbers of resultant OC,
JPE-1375 [C5aRA],34±8,176±29,did not reach a statistical significance,"decrease in both cell types, but only the mono-nuclear cells were at the level of statistical significance",,,"OC generation / differentiation, result in words ([1]; listed as JPE-1375): inhibits mouse and human OC differentiation in vitro; OC differentiation (TRAP^+ cells), result in words ([2]; listed as JPE-1375): inhibits mouse and human OC differentiation in vitro"
"IL-6: exogenous IL-6 (R&D Systems), 20 ng/mL supplemented into BM cell cultures (protein, UniProt P08505 25-211, looked up) Interleukin-6: FPTSQVRRGDFTEDTTPNRPVYTTSQVGGLITHVLWEIVEMRKELCNGNSDCMNNDDALAENNLKLPEIQRNDGCYQTGYNQEICLLKISSGLLEYHSYLEYMKNNLKDNKKDKARVLQRDTETLIHIFNQEVKDLHKIVLPTPISNALLTDKLESQKEWLRTKTIQFILKSLEEFLKVTLRSTRQT",,,,,,,"OC differentiation with IL-6 supplementation, result in words ([3]; C3^−/− BM cell cultures supplemented with IL-6): rescued the C3^−/− phenotype; also recorded: restored their OC differentiation capabilities; TRAP-positive cells (multinucleated) ([3]; C3^−/− BM cells, 20 ng/mL IL-6 daily, 12 days, without IL-6 31±4): 52±9; TRAP-positive cells (mononuclear) ([3]; C3^−/− BM cells, 20 ng/mL IL-6 daily, 12 days, without IL-6 108±17): 249±39; Trap^+ Multi-Nucl. Cells/Well ([3]; Table 2, C3^−/− BM cells + IL-6, C3^−/− without IL-6 31 ± 4): 52 ± 9 Cells/Well; Trap^+ Mono-Nucl. Cells/Well ([3]; Table 2, C3^−/− BM cells + IL-6, C3^−/− without IL-6 108 ± 17): 249 ± 39 Cells/Well"
"C5a: purified C5a (Cell Sciences), complement activation product, 50 ng/mL (protein, UniProt P06684 679-755, looked up, C5a anaphylatoxin) C5a anaphylatoxin: NLHLLRQKIEEQAAKYKHSVPKKCCYDGARVNFYETCEERVARVTIGPLCIRAFNECCTIANKIRKESPHKPVQLGR",,,,,did not appear to have a significant effect,did not appear to have a significant effect,
